Reference: patent US20250129430A1, “HIGH ATP-AFFINITY PROTEIN AS THERAPEUTIC TARGET FOR INTRACTABLE CANCER MOLECULAR SUBTYPES AND INHIBITOR THEREOF” (VeraVerse Co., Ltd., priority 2021, published 2025)
Where a name gives a salt, the structure may show the parent alone.

Assays:
Assay type in all cases: cell-based, human
SNU1 = assay: Cell viability drug screen, 12-point dose-response AUC
Procedure, shortened: (§1)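 Twelve half-log concentrations per compound were tested on gastric cancer cells with an EMT phenotype (5×10^3/well, dosed 24 h post-seeding). Viability after 72 h was quantified via luminescence relative to 0.5% DMSO, and repeats were averaged.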

NCC20 = assay: as above
Procedure, shortened: as §1

SNU638 = assay: as above
Procedure, shortened: as §1

KATO3 = assay: as above
Procedure, shortened: as §1

SNU484 = assay: as above
Procedure, shortened: as §1

YCC2 = assay: as above
Procedure, shortened: as §1

SNU1750 = assay: as above
Procedure, shortened: as §1

MKN45 = assay: as above
Procedure, shortened: (§2)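 Gastric cancer lines seeded 5×10^3 cells/well, dosed after 24 h with half-log 12-point compound dilutions (DMSO 0.5% control), then 72 h at 37 °C. Viability by luminescence, normalized to DMSO; AUC by trapezoidal method, averaged over repeats.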

AGS = assay: as above
Procedure, shortened: as §2

SNU1967 = assay: as above
Procedure, shortened: as §1

NCC24 = assay: as above
Procedure, shortened: as §1

MKN28 = assay: as above
Procedure, shortened: as §1

OCUM1 = assay: as above
Procedure, shortened: as §1

SNU16 = assay: as above
Procedure, shortened: as §1

NCC59 = assay: as above
Procedure, shortened: as §1

YCC11 = assay: as above
Procedure, shortened: as §1

SNU216 = assay: as above
Procedure, shortened: as §2

YCC3 = assay: as above
Procedure, shortened: as §1

SNU668 = assay: as above
Procedure, shortened: as §1

MKN1 = assay: as above
Procedure, shortened: as §1

NCI_N87 = assay: as above
Procedure, shortened: as §1

SK4 = assay: as above
Procedure, shortened: as §1

MKN74 = assay: as above
Procedure, shortened: as §2

SNU620 = assay: as above
Procedure, shortened: as §1

SNU719 = assay: as above
Procedure, shortened: as §2

NCC19 = assay: as above
Procedure, shortened: as §1

Hs746T = assay: as above
Procedure, shortened: as §1

SNU601 = assay: as above
Procedure, shortened: as §1

FU97 = assay: as above; design: Average Area Under the Viability Curve (AUC), AUC norm value: scale not given here
Procedure, shortened: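 Trapezoidal AUC of a 12-point, DMSO-normalized dose-response curve. Luminescent viability was measured after 72 h of exposure at 37° C to half-log serial dilutions (0.5% DMSO control), dosed 24 h after plating FU97 cells at 5×10^3 per well.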

[1] = system: non-SEM-type gastric cancer cell line; assay: Cell viability drug screen, AUC summary over non-SEM-type lines; conditions: in the non-SEM-type gastric cancer cell line

**Q.** How did the “Average Area Under the Viability Curve (AUC), AUC norm value” (shortened to “Average Area Under the Viability Curve”) (SNU1; SNU1 cells, 72 hours) turn out when `CCCCc1oc2ccc(NS(C)(=O)=O)cc2c1C(=O)c1ccc(OCCCN(CCCC)CCCC)cc1` [Dronedarone HCl (Multaq), Dronedarone HCl] was run?
**A.** Its value is 1.295.

**Q.** What about the “Average Area Under the Viability Curve” value (NCC20; NCC20 cells, 72 hours) of the same compound?
**A.** The value was −0.2985.

**Q.** And the “Average Area Under the Viability Curve” value (SNU638; SNU638 cells, 72 hours)?
**A.** Its value is −0.5649.

**Q.** And the “Average Area Under the Viability Curve” value (KATO3; KATO3 cells, 72 hours)?
**A.** The value was 0.1721.

**Q.** What about the “Average Area Under the Viability Curve” value (SNU484; SNU484 cells (SEM subtype), 72 hours) of the same compound?
**A.** The value was −0.2497.

**Q.** And the “Average Area Under the Viability Curve” value (YCC2; YCC2 cells, 72 hours)?
**A.** The value was −0.08246.

**Q.** What about the “Average Area Under the Viability Curve” value (SNU1750; SNU1750 cells (SEM subtype), 72 hours) of the same compound?
**A.** Its value is 0.06657.

**Q.** What about the “Average Area Under the Viability Curve” value (MKN45; MKN45 cells (non-SEM subtype), 72 hours) of the same compound?
**A.** Its value is 0.6772.

**Q.** And the “Average Area Under the Viability Curve” value (AGS; AGS cells (non-SEM subtype), 72 hours)?
**A.** Its value is −0.6415.

**Q.** What about the “Average Area Under the Viability Curve” value (SNU1967; SNU1967 cells, 72 hours) of the same compound?
**A.** Its value is 0.1919.

**Q.** And the “Average Area Under the Viability Curve” value (NCC24; NCC24 cells, 72 hours)?
**A.** Its value is 1.044.

**Q.** And the “Average Area Under the Viability Curve” value (MKN28; MKN28 cells, 72 hours)?
**A.** The value was −0.1927.

**Q.** And the “Average Area Under the Viability Curve” value (OCUM1; OCUM1 cells, 72 hours)?
**A.** The value was 0.02571.

**Q.** What about the “Average Area Under the Viability Curve” value (SNU16; SNU16 cells, 72 hours) of the same compound?
**A.** The value was −0.2149.

**Q.** What about the “Average Area Under the Viability Curve” value (NCC59; NCC59 cells, 72 hours) of the same compound?
**A.** Its value is 0.6769.

**Q.** And the “Average Area Under the Viability Curve” value (YCC11; YCC11 cells (SEM subtype), 72 hours)?
**A.** Its value is −0.521.

**Q.** And the “Average Area Under the Viability Curve” value (SNU216; SNU216 cells (non-SEM subtype), 72 hours)?
**A.** The value was 0.08211.

**Q.** And the “Average Area Under the Viability Curve” value (YCC3; YCC3 cells, 72 hours)?
**A.** The value was 0.8816.

**Q.** And the “Average Area Under the Viability Curve” value (SNU668; SNU668 cells (SEM subtype), 72 hours)?
**A.** The value was 0.4123.

**Q.** What about the “Average Area Under the Viability Curve” value (MKN1; MKN1 cells, 72 hours) of the same compound?
**A.** Its value is 0.

**Q.** And the “Average Area Under the Viability Curve” value (NCI_N87; NCI_N87 cells, 72 hours)?
**A.** Its value is −0.08952.

**Q.** And the “Average Area Under the Viability Curve” value (SK4; SK4 cells (SEM subtype), 72 hours)?
**A.** Its value is −0.3488.

**Q.** And the “Average Area Under the Viability Curve” value (MKN74; MKN74 cells, 72 hours)?
**A.** Its value is −1.381.

**Q.** And the “Average Area Under the Viability Curve” value (SNU620; SNU620 cells, 72 hours)?
**A.** The value was −0.3353.

**Q.** And the “Average Area Under the Viability Curve” value (SNU719; SNU719 cells, 72 hours)?
**A.** The value was 1.291.

**Q.** And the “Average Area Under the Viability Curve” value (NCC19; NCC19 cells, 72 hours)?
**A.** Its value is −0.3711.

**Q.** And the “Average Area Under the Viability Curve” value (Hs746T; Hs746T cells (SEM subtype), 72 hours)?
**A.** Its value is −0.03562.

**Q.** What about the “Average Area Under the Viability Curve” value (SNU601; SNU601 cells, 72 hours) of the same compound?
**A.** The value was 3.848.

**Q.** What about the “Average Area Under the Viability Curve” value (FU97; FU97 cells, 72 hours) of the same compound?
**A.** The value was 0.3807.

**Q.** What about the AUC value [1] of the same compound?
**A.** Its AUC value is “high”.

**Q.** Which “area under the viability curve (AUC), normalized” value (from here on “area … normalized”) (SNU1) does the source give for `[O-][n+]1ccccc1[S-].[O-][n+]1ccccc1[S-].[Zn+2]` [PYRITHIONE ZINC, Pyrithione zinc] here?
**A.** Its value is 1.431.

**Q.** What about the “area … normalized” value (NCC20) of the same compound?
**A.** The value was −0.7838.

**Q.** What about the “area … normalized” value (SNU638) of the same compound?
**A.** Its value is −0.08685.

**Q.** What about the “area … normalized” value (KATO3) of the same compound?
**A.** Its value is 0.8219.

**Q.** What about the “area … normalized” value (SNU484) of the same compound?
**A.** The value was −0.9287.

**Q.** What about the “area … normalized” value (YCC2) of the same compound?
**A.** The value was −0.08387.

**Q.** What about the “area … normalized” value (SNU1750) of the same compound?
**A.** The value was 0.1011.

**Q.** And the “area … normalized” value (MKN45)?
**A.** Its value is −1.0871.

**Q.** What about the “area … normalized” value (AGS) of the same compound?
**A.** Its value is −0.9355.

**Q.** What about the “area … normalized” value (SNU1967) of the same compound?
**A.** The value was −0.5027.

**Q.** What about the “area … normalized” value (NCC24) of the same compound?
**A.** The value was −0.309.

**Q.** What about the “area … normalized” value (MKN28) of the same compound?
**A.** Its value is 0.1421.

**Q.** What about the “area … normalized” value (OCUM1) of the same compound?
**A.** Its value is 0.5355.

**Q.** What about the “area … normalized” value (SNU16) of the same compound?
**A.** The value was 1.28.

**Q.** And the “area … normalized” value (NCC59)?
**A.** The value was 0.7288.

**Q.** And the “area … normalized” value (YCC11)?
**A.** The value was −1.337.

**Q.** And the “area … normalized” value (SNU216)?
**A.** Its value is −0.2272.

**Q.** And the “area … normalized” value (YCC3)?
**A.** The value was 0.6512.

**Q.** And the “area … normalized” value (SNU668)?
**A.** Its value is 0.7681.

**Q.** What about the “area … normalized” value (MKN1) of the same compound?
**A.** Its value is −0.4913.

**Q.** And the “area … normalized” value (NCI_N87)?
**A.** Its value is 1.161.

**Q.** And the “area … normalized” value (SK4)?
**A.** Its value is 0.

**Q.** What about the “area … normalized” value (MKN74) of the same compound?
**A.** Its value is −1.149.

**Q.** And the “area … normalized” value (SNU620)?
**A.** Its value is −0.7817.

**Q.** What about the “area … normalized” value (SNU719) of the same compound?
**A.** Its value is 1.547.

**Q.** And the “area … normalized” value (NCC19)?
**A.** Its value is 0.7336.

**Q.** And the “area … normalized” value (Hs746T)?
**A.** The value was −0.541.

**Q.** And the “area … normalized” value (SNU601)?
**A.** The value was 2.666.

**Q.** And the “area … normalized” value (FU97)?
**A.** The value was 0.3344.

**Q.** And the AUC value [1]?
**A.** Its AUC value is “high”.
